Assay results as given in US4341784A, “Naphthyridine derivatives” (priority 1979, dated 1982).
≈ marks a conversion by molar mass, not a printed value. Read-outs that look alike come from different tables or passages of the source.

Tests used:
[1] = test system: Corynebacterium pyogenes C-21; test: In vitro antibacterial activity (MIC, agar dilution method); type: cell-based
Procedure: (§1) The minimum inhibitory concentrations (MIC, μg/ml) of the following compounds in vitro were measured by the agar dilution method of [Chemotherapy, Vol. 22, No. 16, page 1126 (1974)].

[2] = test system: Enterobacter cloacae P-2540; test: as above; type: cell-based
Procedure: as §1

[3] = test system: Escherichia coli NIHJ JC-2; test: as above; type: cell-based
Procedure: as §1

Escherichia coli P-140a = test: as above; type: cell-based; conditions: read-out: minimum inhibitory concentration (MIC)
Procedure: as §1

Escherichia coli P-5101 [4] = test: as above; type: cell-based
Procedure: as §1

[5] = test system: Klebsiella pneumoniae No. 13; test: as above; type: cell-based
Procedure: as §1

Proteus mirabilis P-2381 = test: as above; type: cell-based
Procedure: as §1

Proteus morganii Kono = test: as above; type: cell-based; conditions: Morganella morganii, read-out: minimum inhibitory concentration (MIC)
Procedure: as §1

[6] = test system: Pseudomonas aeruginosa No. 12; test: as above; type: cell-based
Procedure: as §1

[7] = test system: Pseudomonas aeruginosa Tsuchiijima; test: as above; type: cell-based; conditions: read-out: minimum inhibitory concentration (MIC)
Procedure: as §1

[8] = test system: Salmonella enteritidis No. 1891; test: as above; type: cell-based; conditions: Salmonella enterica, read-out: minimum inhibitory concentration (MIC)
Procedure: as §1

[9] = test system: Salmonella typhimurium S-9; test: as above; type: cell-based; conditions: Salmonella enterica, read-out: minimum inhibitory concentration (MIC)
Procedure: as §1

[10] = test system: Serratia marcescens IFO 3736; test: as above; type: cell-based
Procedure: as §1

Shigella flexneri 2a = test: as above; type: cell-based; conditions: read-out: minimum inhibitory concentration (MIC)
Procedure: as §1

[11] = test system: Shigella flexneri 4a P-330; test: as above; type: cell-based; conditions: 4AP330, read-out: minimum inhibitory concentration (MIC)
Procedure: as §1

[12] = test system: Staphylococcus aureus 209P JC-1; test: as above; type: cell-based; conditions: read-out: minimum inhibitory concentration (MIC)
Procedure: as §1

[13] = test system: Staphylococcus aureus No. 50774; test: as above; type: cell-based
Procedure: as §1

[14] = test system: Staphylococcus aureus No. 80; test: as above; type: cell-based
Procedure: as §1

[15] = test system: Staphylococcus aureus Smith; test: as above; type: cell-based; conditions: read-out: minimum inhibitory concentration (MIC)
Procedure: as §1

[16] = test system: Staphylococcus epidermidis No. 8; test: as above; type: cell-based
Procedure: as §1

[17] = test system: Streptococcus faecalis P-2473; test: as above; type: cell-based; conditions: Enterococcus faecalis, P2473, read-out: minimum inhibitory concentration (MIC)
Procedure: as §1

[18] = test system: Streptococcus pyogenes 65A; test: as above; type: cell-based; conditions: read-out: minimum inhibitory concentration (MIC)
Procedure: as §1

Escherichia coli P-5101 [19] = test: In vivo efficacy against systemic infections in mice (intraperitoneal infection); set-up: species or system male mice (ddY); conditions: P5101, 168 h, po, twice, about 5 minutes and 6 hours after intraperitoneal infection, observed 7 days
Procedure: (§2) Each of the solutions was orally administered to mice infected with each of test organisms under the conditions described below, and the medium effective doses (ED50) obtained are shown in Table II. Male mice (ddY) weighing about 20 g (3) Escherichia coli P-5101: Intraperitoneal infection with about 9×10^6 cells per mouse suspended in trypto-soy broth with 4% mucin. Twice, about 5 minutes and 6 hours after infection. |Escherichia coli P-5101 for 7 days | The numerals in the table show ED50 (mg/kg). ED50 values were | calculated in accordance with the BehrensKaerber method (Arch. Exp. Path. | Pharm., 162, 480 (1931)). | po: oral administration.

[20] = test system: Pseudomonas aeruginosa No. 12; test: as above; set-up: species or system male mice (ddY); conditions: NO.12, 168 h, po, twice, about 5 minutes and 6 hours after intraperitoneal infection, observed 7 days
Procedure: as §2, with “(4) Pseudomonas aeruginosa No. 12:” for “(3) Escherichia coli P-5101:”, “5×10^3” for “9×10^6”, “days |Pseudomonas aeruginosa No. 12” for “days”

[21] = Corynebacterium pyogenes, C21, read-out: minimum inhibitory concentration (MIC)
[22] = P2540, Enterobacter cloacae P-2540, agar dilution, read-out: minimum inhibitory concentration (MIC)
[23] = NIHJJC2, Escherichia coli NIHJ JC-2, agar dilution, read-out: minimum inhibitory concentration (MIC)
[24] = P140A, Escherichia coli P-140a, agar dilution
[25] = P5101, Escherichia coli P-5101, agar dilution, read-out: minimum inhibitory concentration (MIC)
[26] = Klebsiella pneumoniae No. 13, agar dilution, read-out: minimum inhibitory concentration (MIC)
[27] = P2381, Proteus mirabilis P-2381, agar dilution, read-out: minimum inhibitory concentration (MIC)
[28] = Proteus morganii Kono, agar dilution
[29] = Pseudomonas aeruginosa, NO.12, read-out: minimum inhibitory concentration (MIC)
[30] = Salmonella typhimurium S-9, agar dilution
[31] = IFO3736, Serratia marcescens IFO 3736, agar dilution, read-out: minimum inhibitory concentration (MIC)
[32] = Staphylococcus aureus, NO.50774, read-out: minimum inhibitory concentration (MIC)
[33] = Staphylococcus aureus No. 80, agar dilution, read-out: minimum inhibitory concentration (MIC)
[34] = Staphylococcus epidermidis No. 8, agar dilution, read-out: minimum inhibitory concentration (MIC)
[35] = C21, Corynebacterium pyogenes C-21, agar dilution, read-out: minimum inhibitory concentration (MIC)
[36] = Pseudomonas aeruginosa No. 12, agar dilution, read-out: minimum inhibitory concentration (MIC)
[37] = Pseudomonas aeruginosa Tsuchiijima, agar dilution
[38] = Salmonella enteritidis No. 1891, agar dilution
[39] = Staphylococcus aureus 209P JC-1, agar dilution
[40] = Staphylococcus aureus No. 50774, agar dilution, read-out: minimum inhibitory concentration (MIC)
[41] = Staphylococcus aureus Smith, agar dilution
[42] = Streptococcus pyogenes 65A, agar dilution
[43] = Enterobacter cloacae, P2540, read-out: minimum inhibitory concentration (MIC)
[44] = Escherichia coli, NIHJJC2, read-out: minimum inhibitory concentration (MIC)
[45] = Klebsiella pneumoniae, NO.13, read-out: minimum inhibitory concentration (MIC)
[46] = Serratia marcescens, IFO3736, read-out: minimum inhibitory concentration (MIC)
[47] = Staphylococcus aureus, NO.80, read-out: minimum inhibitory concentration (MIC)
[48] = Staphylococcus epidermidis, NO.8, read-out: minimum inhibitory concentration (MIC)
[49] = Escherichia coli, P5101, read-out: minimum inhibitory concentration (MIC)

Row | SMILES | MIC [2, 22] [µg/mL] | MIC [3, 23] [µg/mL] | MIC (Escherichia coli P-140a; [24]) [µg/mL] | MIC (Escherichia coli P-5101 [4]; [25]) [µg/mL] | MIC [5, 26] [µg/mL] | MIC (Proteus mirabilis P-2381; [27]) [µg/mL] | MIC (Proteus morganii Kono; [28]) [µg/mL] | MIC [6, 29] [µg/mL] | MIC ([7]; Pseudomonas aeruginosa) [µg/mL] | MIC [9, 30] [µg/mL] | MIC [10, 31] [µg/mL] | MIC (Shigella flexneri 2a) [µg/mL] | MIC [11] [µg/mL] | MIC ([12]; Staphylococcus aureus, 209P) [µg/mL] | MIC [13, 32] [µg/mL] | MIC ([15]; Staphylococcus aureus) [µg/mL] | MIC [17] [µg/mL] | MIC ([18]; Streptococcus pyogenes, 65A) [µg/mL] | MIC [1, 35] [µg/mL] | MIC [8, 38] [µg/mL] | also measured
1 | CCn1cc(C(=O)O)c(=O)c2ccc(N3CCCC3)nc21 [Compound A, 1-Ethyl-1,4-dihydro-4-oxo-7-(1-pyrrolidinyl)-1,8-naphthyridine-3-carboxylicacid] | > 200 | 25 (≈ 87 µM) | 3.13 (≈ 10.9 µM) | 50 (≈ 174 µM) | > 200 | > 200 | > 200 | > 200 | > 200 | 50 (≈ 174 µM) | > 200 | > 200 | 6.25 (≈ 21.8 µM) | 12.5 (≈ 43.5 µM) | 6.25 (≈ 21.8 µM) | 6.25 (≈ 21.8 µM) | > 200 | > 200 |  |  | MIC [1, 21]: > 200 µg/mL; MIC ([8]; ENTERITIDIS): 6.25 µg/mL (≈ 21.8 µM); MIC [14, 33]: 3.13 µg/mL (≈ 10.9 µM); MIC [16, 34]: 3.13 µg/mL (≈ 10.9 µM)
2 | CCn1cc(C(=O)O)c(=O)c2cc(Cl)c(N3CCCC3)nc21 [Compound B, 6-Chloro-1-ethyl-1,4-dihydro-4-oxo-7-(1-pyrrolidinyl)-1,8-naphthyridine-3-carboxylic acid] | 50 (≈ 155 µM) | 50 (≈ 155 µM) | 50 (≈ 155 µM) | 50 (≈ 155 µM) | > 100 | > 100 | > 100 |  |  | 50 (≈ 155 µM) | > 100 | 50 (≈ 155 µM) | > 100 |  |  |  | > 200 |  | 50 (≈ 155 µM) | 25 (≈ 77.7 µM) | MIC [6, 36]: > 100 µg/mL; MIC [7, 37]: > 100 µg/mL; MIC [12, 39]: 12.5 µg/mL (≈ 38.8 µM); MIC [13, 40]: 6.25 µg/mL (≈ 19.4 µM); MIC [14, 33]: 6.25 µg/mL (≈ 19.4 µM); MIC [15, 41]: 6.25 µg/mL (≈ 19.4 µM); MIC [16, 34]: 3.13 µg/mL (≈ 9.73 µM); MIC [18, 42]: 50 µg/mL (≈ 155 µM)
3 | CCn1cc(C(=O)O)c(=O)c2cc(F)c(N3CCCC3)nc21 [Compound C, 1-Ethyl-6-fluoro-1,4-dihydro-4-oxo-7-(1-pyrrolidinyl)-1,8-naphthyridine-3-carboxylic acid] |  |  | 0.78 (≈ 2.55 µM) | 0.78 (≈ 2.55 µM) |  | 6.56 (≈ 21.5 µM) |  | 3.13 (≈ 10.3 µM) | 3.13 (≈ 10.3 µM) | 0.78 (≈ 2.55 µM) |  | 1.56 (≈ 5.11 µM) | 3.13 (≈ 10.3 µM) |  |  |  | 6.25 (≈ 20.5 µM) | 3.13 (≈ 10.3 µM) | 0.78 (≈ 2.55 µM) | 0.39 (≈ 1.28 µM) | MIC [2, 43]: 1.56 µg/mL (≈ 5.11 µM); MIC [3, 44]: 1.56 µg/mL (≈ 5.11 µM); MIC [5, 45]: 1.56 µg/mL (≈ 5.11 µM); MIC (Proteus morganii Kono): 1.56 µg/mL (≈ 5.11 µM); MIC [10, 46]: 3.13 µg/mL (≈ 10.3 µM); MIC [12, 39]: 0.39 µg/mL (≈ 1.28 µM); MIC [13, 40]: 0.2 µg/mL (≈ 0.655 µM); MIC [14, 47]: 0.2 µg/mL (≈ 0.655 µM); MIC [15, 41]: 0.39 µg/mL (≈ 1.28 µM); MIC [16, 48]: 0.39 µg/mL (≈ 1.28 µM); ED50 (Escherichia coli P-5101 [19]): > 50 mg/kg; ED50 [20]: > 100 mg/kg
4 | CCn1cc(C(=O)O)c(=O)c2ccc(C)nc21 [Compound D, 1-Ethyl-1,4-dihydro-7-methyl-4-oxo-1,8-naphthyridine-3-carboxylic acid] |  |  | 1.56 (≈ 6.72 µM) |  |  |  |  | 200 (≈ 861 µM) | 200 (≈ 861 µM) |  |  | 6.25 (≈ 26.9 µM) | 3.13 (≈ 13.5 µM) | 100 (≈ 431 µM) | 50 (≈ 215 µM) | 25 (≈ 108 µM) | > 200 | > 200 |  |  | MIC [1, 21]: > 200 µg/mL; MIC [2, 43]: 6.25 µg/mL (≈ 26.9 µM); MIC [3, 44]: 12.5 µg/mL (≈ 53.8 µM); MIC (Escherichia coli P-5101 [4]; [49]): 3.13 µg/mL (≈ 13.5 µM); MIC [5, 45]: 12.5 µg/mL (≈ 53.8 µM); MIC (Proteus mirabilis P-2381; Proteus mirabilis, P2381, read-out: minimum inhibitory concentration (MIC)): 6.25 µg/mL (≈ 26.9 µM); MIC (Proteus morganii Kono): 6.25 µg/mL (≈ 26.9 µM); MIC ([8]; ENTERITIDIS): 3.13 µg/mL (≈ 13.5 µM); MIC ([9]; TYPHIMURIUM): 3.13 µg/mL (≈ 13.5 µM); MIC [10, 46]: 6.25 µg/mL (≈ 26.9 µM); MIC [14, 47]: 25 µg/mL (≈ 108 µM); MIC [16, 48]: 25 µg/mL (≈ 108 µM)
5 | CCn1cc(C(=O)O)c(=O)c2cnc(N3CCCC3)nc21 [Compound E, 8-Ethyl-5,8-dihydro-5-oxo-2-(1-pyrrolidinyl)pyrido[2,3-d]pyrimidine-6-carboxylic acid] | 25 (≈ 86.7 µM) | 25 (≈ 86.7 µM) |  |  | 25 (≈ 86.7 µM) | 50 (≈ 173 µM) | 25 (≈ 86.7 µM) |  |  | 25 (≈ 86.7 µM) | 50 (≈ 173 µM) | 12.5 (≈ 43.4 µM) | 12.5 (≈ 43.4 µM) | 12.5 (≈ 43.4 µM) | 12.5 (≈ 43.4 µM) | 12.5 (≈ 43.4 µM) | > 200 |  | 25 (≈ 86.7 µM) | 25 (≈ 86.7 µM) | MIC (Escherichia coli P-140a; Escherichia coli): 12.5 µg/mL (≈ 43.4 µM); MIC (Escherichia coli P-5101 [4]; [49]): 12.5 µg/mL (≈ 43.4 µM); MIC [6, 36]: 100 µg/mL (≈ 347 µM); MIC [7, 37]: 100 µg/mL (≈ 347 µM); MIC [14, 47]: 12.5 µg/mL (≈ 43.4 µM); MIC [16, 48]: 12.5 µg/mL (≈ 43.4 µM); MIC [18, 42]: 200 µg/mL (≈ 694 µM)
